Reference: PubChem BioAssay (NCI)
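Following 48 hours of exposure in 96-well plates, responses at five concentrations were used to interpolate endpoints linearly. GI50 is the concentration that inhibits growth by half. TGI: concentration producing complete growth inhibition.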

Experiments:
Experiment in all cases: NCI-60 cell line screen, 48 h
IGROV1 ovarian = test system: IGROV1 ovarian
UO-31 renal = test system: UO-31 renal
CCRF-CEM leukemia = test system: CCRF-CEM leukemia
MALME-3M melanoma = test system: MALME-3M melanoma
K-562 leukemia = test system: K-562 leukemia
786-0 renal = test system: 786-0 renal
SNB-19 CNS = test system: SNB-19 CNS
HT29 colon = test system: HT29 colon
HCC-2998 colon = test system: HCC-2998 colon
RXF 393 renal = test system: RXF 393 renal

| SMILES | GI50 (IGROV1 ovarian) [µM] | TGI (IGROV1 ovarian) [µM] | GI50 (UO-31 renal) [µM] | TGI (UO-31 renal) [µM] | GI50 (CCRF-CEM leukemia) [µM] | TGI (CCRF-CEM leukemia) [µM] | GI50 (MALME-3M melanoma) [µM] | TGI (MALME-3M melanoma) [µM] | GI50 (K-562 leukemia) [µM] | TGI (K-562 leukemia) [µM] | GI50 (786-0 renal) [µM] | TGI (786-0 renal) [µM] | GI50 (SNB-19 CNS) [µM] | TGI (SNB-19 CNS) [µM] | GI50 (HT29 colon) [µM] | TGI (HT29 colon) [µM] | GI50 (HCC-2998 colon) [µM] | TGI (HCC-2998 colon) [µM] | TGI (RXF 393 renal) [µM] | GI50 (RXF 393 renal) [µM] |
| --- | --- | --- | --- | --- | --- | --- | --- | --- | --- | --- | --- | --- | --- | --- | --- | --- | --- | --- | --- | --- |
| COc1ccc(-c2nnc(COc3ccc(NC(=O)Nc4ccc(Cl)c(C(F)(F)F)c4)cc3F)o2)cc1 | 4.77 | 26.4 | 2.88 | 16.6 | 3.06 | 40 | 2.72 | 7.63 | 3.31 | 53.9 | 3.24 | 12 | 4.02 | 24.2 | 3.57 | 22.4 | 4.86 | 53.1 |  |  |
| CC(C)(C)c1ccc(O)c(CN(Cc2cc(C(C)(C)C)ccc2O)c2ccccc2)c1 |  | 47.7 |  | 29.2 |  | > 100 |  | 29.9 |  | 31.9 |  | 30.7 |  | 31.5 |  | 35.3 |  |  | 27.5 |  |
| COc1ccc2nc3cc(Cl)ccc3c(NCCN)c2c1 |  |  | 1.5 | 2.95 | 1.42 | 5.39 |  |  |  |  | 1.63 | 3.05 |  |  |  |  |  |  |  |  |
| CC(C)CCCC(=O)CCCCCCC(=O)CCN(O)C(=O)C(N)CO (stereo not given) |  | 31.9 |  | 26.7 |  | > 100 |  | 36.6 |  | > 100 |  | 36.2 |  | 48.6 |  | 43.5 |  |  | 27.4 |  |
| CSc1nc2cc(S(=O)(=O)N3CCCCC3)ccc2s1 |  | > 100 |  | > 100 |  | > 100 |  | > 100 |  | > 100 |  | > 100 |  | > 100 |  | > 100 |  |  | > 100 |  |
| CC(C)c1ccc(C(c2ccc(OCC(=O)O)cc2)c2ccc(C(C)C)cc(=O)c2O)c(O)c(=O)c1 |  | 21 |  |  |  | 85.2 |  |  |  | 35.5 |  | 22 |  | 28 |  | > 100 |  | 20.3 | 27.2 |  |
| Cn1c2ccccc2c2c3[nH]c(=O)[nH]c(=O)c3c3c4ccccc4n(C)c3c21 | 2.14 | 12 |  |  | 3.73 | > 100 | 2.03 | 6.14 |  |  | 1.88 | 4.34 | 3.8 | 21.4 |  |  | 8.25 | > 100 | 5.25 | 1.74 |
| COC(C(O)c1ccc2c(c1)OCO2)P(=O)(c1ccccc1)c1ccccc1 (stereo not given) |  | > 100 |  | > 100 |  | > 100 |  | > 100 |  | > 100 |  | > 100 |  | > 100 |  | > 100 |  |  | > 100 |  |
| COC(=O)C12C3C4C1C1C2C3C41NC(=O)c1csc([C@@H](C[C@H](C(C)C)N(C)C(=O)[C@@H](NC(=O)[C@H]2CCCCN2C)C2CC2)OC(C)=O)n1 (stereo not given in full) | 0.0226 | > 33.3 | 0.35 | > 33.3 | 0.00732 | > 33.3 | 0.0581 | > 33.3 | 0.00569 | > 33.3 | 0.088 | > 33.3 | 0.077 | > 33.3 | 0.00658 | > 33.3 | 0.146 | > 33.3 |  |  |
